These results are taken from ChEMBL document CHEMBL5053522, “Synthesis of 3-octadecanoxypropyl 6-deoxy-6-sulfo-α-d-glucopyranoside (ODSG) as a lipase-resistant SQAP derivative” (2021).

A value given as a limit tells only on which side of the number the result lay.

The test system of this assay is A549. In words: Cytotoxicity against human A549 cells assessed as survival rate upto 170 uM by CCK8 assay relative to control. The settings on record: up to 170 µM. It counts as functional. (Tetrazolium assays rely on reduction of a dye to a coloured formazan, in cell work by metabolically active cells.)

For the molecule `CCCCCCCCCCCCCCCCCCOCCCO[C@H]1O[C@H](CS(=O)(=O)[O-])[C@@H](O)[C@H](O)[C@H]1O.[Na+]`, the Activity is reported as over 70%.
Consider `CCCCCCCCCCCCCCCCCC(=O)OCCCO[C@H]1O[C@H](CS(=O)(=O)[O-])[C@@H](O)[C@H](O)[C@H]1O.[Na+]`, for which the Activity is reported as 70%.
